Measurements from patent US6808904B2, “Herbicide-tolerant protox genes produced by DNA shuffling” (priority 1994, dated 2004).

Experiments:
Assay in all cases: Bacterial cross-tolerance testing of resistant mutant plasmids in SASX38, Arabidopsis protox-1 mutants
Assay type in all cases: cell-based
Design in all cases: key to Cross tolerance, AraC-1Val / Cross tolerance, AraC-2Cys / Cross tolerance, AraC-1Thr / Cross tolerance, AraC-3Thr / Cross tolerance, AraC-2Ile / Cross tolerance, AraC-2Cys + AraC425Ser: + = 10× or more tolerant than WT; ++ = 100× or more tolerant than WT; − = no cross tolerance
[1] = molecular target: T1, plant protox mutants (Arabidopsis protox-1) in SASX38 (Arabidopsis thaliana, UniProt P55826, N425S/T56K/Y426C); settings: mutant AraC-2Cys + AraC425Ser
T1 construct: contains only 17 amino acids of the putative chloroplast transit peptide; expressed in transfected cells; host or cells: E. coli SASX38 (hemG mutant)
T1 sequence (P55826 41-537 T56K/N425S/Y426C): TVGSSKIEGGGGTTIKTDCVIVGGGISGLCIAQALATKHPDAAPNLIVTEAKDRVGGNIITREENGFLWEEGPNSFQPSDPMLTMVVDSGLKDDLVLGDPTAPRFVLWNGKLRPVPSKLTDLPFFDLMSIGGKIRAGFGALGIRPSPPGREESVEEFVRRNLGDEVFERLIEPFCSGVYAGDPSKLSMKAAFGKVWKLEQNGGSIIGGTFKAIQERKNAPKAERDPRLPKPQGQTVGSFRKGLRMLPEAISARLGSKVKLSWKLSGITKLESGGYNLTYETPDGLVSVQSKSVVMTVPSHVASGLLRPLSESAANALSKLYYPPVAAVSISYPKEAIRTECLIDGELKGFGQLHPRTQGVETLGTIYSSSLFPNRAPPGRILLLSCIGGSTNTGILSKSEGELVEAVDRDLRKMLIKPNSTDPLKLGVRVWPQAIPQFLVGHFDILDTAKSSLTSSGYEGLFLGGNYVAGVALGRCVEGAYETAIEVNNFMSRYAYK
Protocol: (§1) Resistant mutant plasmids, originally identified based on resistance against a single protox inhibitory herbicide, were tested against a spectrum of other protox inhibiting compounds. For this test, the SASX38 strain containing the wild-type plasmid is plated on a range of concentrations of each compound to determine the lethal concentration for each one. Resistant mutant plasmids in SASX38 are plated and scored for the ability to survive on a concentration of each compound at least 10 fold higher than the concentration that is lethal to the SASX38 strain containing the wild-type plasmid.

[2] = molecular target: T2, plant protox mutants (Arabidopsis protox-1) in SASX38 (Arabidopsis thaliana, UniProt P55826, A220L/T56K); settings: mutant AraC-1Leu
T2 construct: contains only 17 amino acids of the putative chloroplast transit peptide; expressed in transfected cells; host or cells: E. coli SASX38 (hemG mutant)
T2 sequence (P55826 41-537 T56K/A220L): as the sequence (P55826 41-537 T56K/N425S/Y426C) above, with A180L, S385N, C386Y counted along it
Protocol: as §1

[3] = molecular target: T3, plant protox mutants (Arabidopsis protox-1) in SASX38 (Arabidopsis thaliana, UniProt P55826, A220T/T56K); settings: mutant AraC-1Thr vs WT plasmid in SASX38
T3 construct: contains only 17 amino acids of the putative chloroplast transit peptide; expressed in transfected cells; host or cells: E. coli SASX38 (hemG mutant)
T3 sequence (P55826 41-537 T56K/A220T): as the sequence (P55826 41-537 T56K/N425S/Y426C) above, with A180T, S385N, C386Y counted along it
Protocol: as §1

[4] = molecular target: T4, plant protox mutants (Arabidopsis protox-1) in SASX38 (Arabidopsis thaliana, UniProt P55826, A220L/T56K/Y426L); settings: mutant AraC-1Leu + AraC-2Leu
T4 construct: contains only 17 amino acids of the putative chloroplast transit peptide; expressed in transfected cells; host or cells: E. coli SASX38 (hemG mutant)
T4 sequence (P55826 41-537 T56K/A220L/Y426L): as the sequence (P55826 41-537 T56K/N425S/Y426C) above, with A180L, S385N, C386L counted along it
Protocol: as §1

[5] = molecular target: T5, plant protox mutants (Arabidopsis protox-1) in SASX38 (Arabidopsis thaliana, UniProt P55826, A220V/T56K); settings: mutant AraC-1Val vs WT plasmid in SASX38
T5 construct: contains only 17 amino acids of the putative chloroplast transit peptide; expressed in transfected cells; host or cells: E. coli SASX38 (hemG mutant)
T5 sequence (P55826 41-537 T56K/A220V): as the sequence (P55826 41-537 T56K/N425S/Y426C) above, with A180V, S385N, C386Y counted along it
Protocol: as §1

[6] = molecular target: T6, plant protox mutants (Arabidopsis protox-1) in SASX38 (Arabidopsis thaliana, UniProt P55826, A220L/T56K/Y426M); settings: mutant AraC-1Leu + AraC-2Met
T6 construct: contains only 17 amino acids of the putative chloroplast transit peptide; expressed in transfected cells; host or cells: E. coli SASX38 (hemG mutant)
T6 sequence (P55826 41-537 T56K/A220L/Y426M): as the sequence (P55826 41-537 T56K/N425S/Y426C) above, with A180L, S385N, C386M counted along it
Protocol: as §1

[7] = test system: plant protox mutants (Arabidopsis protox-1) in SASX38; settings: mutant AraC-3Thr vs WT plasmid in SASX38
Protocol: as §1

[8] = molecular target: T7, plant protox mutants (Arabidopsis protox-1) in SASX38 (Arabidopsis thaliana, UniProt P55826, N425S/T56K/Y426M); settings: mutant AraC-2Met + AraC425Ser
T7 construct: contains only 17 amino acids of the putative chloroplast transit peptide; expressed in transfected cells; host or cells: E. coli SASX38 (hemG mutant)
T7 sequence (P55826 41-537 T56K/N425S/Y426M): as the sequence (P55826 41-537 T56K/N425S/Y426C) above, with C386M counted along it
Protocol: as §1

CCCCCOC(=O)COc1cc(N2C(=O)C3=C(CCCC3)C2=O)c(F)cc1Cl [XIV]
Cross tolerance, AraC-2Cys + AraC425Ser [1]: −
Cross tolerance, AraC-1Leu [2]: ++ (++ = 100× or more tolerant than WT)
Cross tolerance, AraC-1Thr [3]: + (+ = 10× or more tolerant than WT)
Cross tolerance, AraC-1Leu + AraC-2Leu [4]: ++ (++ = 100× or more tolerant than WT)
Cross tolerance, AraC-1Val [5]: + (+ = 10× or more tolerant than WT)
Cross tolerance, AraC-1Leu + AraC-2Met [6]: ++ (++ = 100× or more tolerant than WT)
Cross tolerance, AraC-3Thr [7]: + (+ = 10× or more tolerant than WT)
Cross tolerance, AraC-2Met + AraC425Ser [8]: ++ (++ = 100× or more tolerant than WT)

CC(C)OC(=O)c1cc(-n2c(=O)cc(C(F)(F)F)n(C)c2=O)ccc1Cl [XI]
Cross tolerance, AraC-2Cys + AraC425Ser [1]: ++ (++ = 100× or more tolerant than WT)
Cross tolerance, AraC-1Leu [2]: ++ (++ = 100× or more tolerant than WT)
Cross tolerance, AraC-1Thr [3]: + (+ = 10× or more tolerant than WT)
Cross tolerance, AraC-1Leu + AraC-2Leu [4]: ++ (++ = 100× or more tolerant than WT)
Cross tolerance, AraC-1Val [5]: −
Cross tolerance, AraC-1Leu + AraC-2Met [6]: ++ (++ = 100× or more tolerant than WT)
Cross tolerance, AraC-3Thr [7]: ++ (++ = 100× or more tolerant than WT)
Cross tolerance, AraC-2Met + AraC425Ser [8]: ++ (++ = 100× or more tolerant than WT)

COC(=O)CSc1cc(N=c2sc(=O)n3n2CCCC3)c(F)cc1Cl [VIIa]
Cross tolerance, AraC-2Cys + AraC425Ser [1]: ++ (++ = 100× or more tolerant than WT)
Cross tolerance, AraC-1Leu [2]: ++ (++ = 100× or more tolerant than WT)
Cross tolerance, AraC-1Thr [3]: + (+ = 10× or more tolerant than WT)
Cross tolerance, AraC-1Leu + AraC-2Leu [4]: ++ (++ = 100× or more tolerant than WT)
Cross tolerance, AraC-1Val [5]: + (+ = 10× or more tolerant than WT)
Cross tolerance, AraC-1Leu + AraC-2Met [6]: ++ (++ = 100× or more tolerant than WT)
Cross tolerance, AraC-3Thr [7]: −
Cross tolerance, AraC-2Met + AraC425Ser [8]: ++ (++ = 100× or more tolerant than WT)

CCOC(=O)COC(=O)c1cc(Oc2ccc(C(F)(F)F)cc2Cl)ccc1[N+](=O)[O-] [IV]
Cross tolerance, AraC-2Cys + AraC425Ser [1]: −
Cross tolerance, AraC-1Leu [2]: ++ (++ = 100× or more tolerant than WT)
Cross tolerance, AraC-1Thr [3]: ++ (++ = 100× or more tolerant than WT)
Cross tolerance, AraC-1Leu + AraC-2Leu [4]: ++ (++ = 100× or more tolerant than WT)
Cross tolerance, AraC-1Val [5]: ++ (++ = 100× or more tolerant than WT)
Cross tolerance, AraC-1Leu + AraC-2Met [6]: + (+ = 10× or more tolerant than WT)
Cross tolerance, AraC-3Thr [7]: ++ (++ = 100× or more tolerant than WT)
Cross tolerance, AraC-2Met + AraC425Ser [8]: + (+ = 10× or more tolerant than WT)
